Laboratory results published in US10980727B2, “Mixtures containing (E)-3-benzo[1,3]dioxol-5-yl-N,N-diphenyl-2-propenamide” (SYMRISE AG, priority 2016, dated 2021).

Legend:
Assay type in all cases: physicochemical
[1] = Solubility of BDDPA in different solvents at room temperature
Experimental: The solubility of (E)-3-benzo[1,3]dioxol-5-yl-N,N-diphenyl-2-propenamide (BDDPA) in different solvents was tested.
(§1) The amount of solvent added to the amount of (E)-3-benzo[1,3]dioxol-5-yl-N,N-diphenyl-2-propenamide is added up to 100 wt.-% in each mixture (1 to 18). Thus the composition of mixture 1 is 99 wt.-% ethanol, 1 wt.-% BDDPA.

[2] = Solubility of BDDPA in binary and ternary solvent systems at 23° C. and 90° C.
Experimental: The solubility of (E)-3-benzo[1,3]dioxol-5-yl-N,N-diphenyl-2-propenamide (BDDPA) in different solvent combinations was tested.
The amount of solvents 1 to 3 add up to 100 wt.-% with the amount of (E)-3-benzo[1,3]dioxol-5-yl-N,N-diphenyl-2-propenamide. Thus the composition of mixture 19 is 5 wt.-% BDDPA, 47.5 wt.-% triacetin and 47.5 wt.-% peppermint oil.

[3] = Stability of the mixtures on storage at 5° C.; details: mixtures of table 2
Experimental: Several of the mixtures of example 1 were stored at night at 5 C to observe the stability.
as §1

For O=C(/C=C/c1ccc2c(c1)OCO2)N(c1ccccc1)c1ccccc1 [BDDPA, (E)-3-benzo[1,3]dioxol-5-yl-N,N-diphenyl-2-propenamide], the “BDDPA dissolved in the respective solvents at room temperature” value ([1]; 23° C., solvents of table 1) was “completely dissolved”, the “Temperature at which BDDPA dissolves in the solvents of table 1” value ([1]; where necessary by means of ultrasonification) was at most 65 °C and the “BDDPA dissolved in binary and ternary solvent combinations at room temperature” value ([2]; 23° C.) was “completely dissolved”. For the same compound, the “BDDPA dissolved in binary and ternary solvent combinations at high temperature” value ([2]; 90° C.) was “remains stably dissolved” and the “Recrystallization on storage over night below room temperature” value [3] was “no recrystallization occurs”.
